Experimental data published in patent publication US8835648B2, “Hedgehog pathway antagonists and therapeutic applications thereof” (Siena Biotech S.p.A., priority 2009, dated 2014).

Key:
[1] = test system: 293FlpIN/clone E-3 mock transfected cells; experiment: Bodipy-Cyclopamine specific binding curve, mock transfected cell line clone E-3; details: stable mock transfected cell line clone E-3
Smo receptor = molecular target: T1, Smo receptor (Homo sapiens, UniProt Q99835); experiment: Bodipy-Cyclopamine specific binding curve, Smo-FLAG transfected cell line clone 3-5; details: stable Smo-FLAG transfected cell line clone 3-5
T1 construct: expressed in transfected cells; template pCMV6-XL5-Smo, Origene cat; TC122724
T1 sequence (Q99835 28-787): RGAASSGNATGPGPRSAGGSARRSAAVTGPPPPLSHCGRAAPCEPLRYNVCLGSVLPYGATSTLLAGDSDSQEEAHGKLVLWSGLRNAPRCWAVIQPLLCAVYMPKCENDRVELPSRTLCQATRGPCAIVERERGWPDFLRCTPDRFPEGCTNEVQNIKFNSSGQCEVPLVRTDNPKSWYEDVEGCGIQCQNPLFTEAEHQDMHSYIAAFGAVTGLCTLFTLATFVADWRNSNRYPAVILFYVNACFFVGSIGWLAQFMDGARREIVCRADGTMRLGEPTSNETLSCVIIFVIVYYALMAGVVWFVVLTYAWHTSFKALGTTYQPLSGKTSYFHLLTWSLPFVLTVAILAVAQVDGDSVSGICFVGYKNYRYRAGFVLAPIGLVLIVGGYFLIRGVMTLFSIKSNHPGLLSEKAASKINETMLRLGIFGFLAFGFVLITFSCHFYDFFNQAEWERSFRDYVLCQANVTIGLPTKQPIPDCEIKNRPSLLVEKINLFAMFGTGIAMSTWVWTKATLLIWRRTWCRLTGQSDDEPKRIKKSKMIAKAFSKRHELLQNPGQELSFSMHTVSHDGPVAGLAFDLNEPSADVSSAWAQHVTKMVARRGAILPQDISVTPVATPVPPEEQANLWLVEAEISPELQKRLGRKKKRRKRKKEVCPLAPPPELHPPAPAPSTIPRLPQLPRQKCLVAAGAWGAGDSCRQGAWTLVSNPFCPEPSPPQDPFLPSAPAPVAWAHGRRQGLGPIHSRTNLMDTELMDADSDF

With `CC1=C2CC3C(CC=C4C[C@@H](O)CCC43C)C2CCC12O[C@@H]1CC(C)CN(CCNC(=O)CCCCCNC(=O)CCC3=[N+]4C(=Cc5c(C)cc(C)n5[B-]4(F)F)C=C3)C1C2C` (some centres unmarked) [Bodipy-Cyclopamine] as the compound, how does the Kd [1] read?
Its Kd is 115 nM.

What about the Kd (Smo receptor) of the same compound?
The Kd was 44.3 nM.
